Measurements reported in ChEMBL document CHEMBL1201862, “PubChem BioAssay data set” (2004).
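1) Cells in 96-well plates. 2) Compound, 48 h, 5 concentrations. 3) Linear interpolation between surrounding doses. 4) Unreached endpoint = highest concentration. GI50 = concentration required for 50% inhibition of growth.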 The source made the active and inactive calls. Rule as the data show it: active = GI50 up to about 1.1 µM and inactive = higher.

Experiments:
Assay in all cases: NCI anticancer screen, dose series, 48 h
[1] = tested on: DMS-273
[2] = tested on: DLD-1
[3] = tested on: LXFL 529
[4] = tested on: M19-MEL
[5] = tested on: RXF 631
[6] = tested on: HOP-18
[7] = tested on: XF498
[8] = tested on: KM-20L2
[9] = tested on: DMS-114

Measured: GI50

C/C=C/C=C/[C@H]1Cc2cc(O)cc(O)c2O1
inactive: [1] 28.9 µM | [2] 82 µM | [3] 27.4 µM | [4] 39.6 µM | [5] 62.4 µM | [6] > 100 µM | [7] 46.5 µM | [8] 62.4 µM | [9] 22.6 µM

O=C1N=C(Nc2ccccc2Cl)SC1C(=O)Nc1ccc([N+](=O)[O-])cc1[N+](=O)[O-] (stereo not given)
inactive: [1] > 100 µM | [2] > 100 µM | [3] > 100 µM | [4] > 100 µM | [5] > 100 µM | [6] 22 µM | [7] > 100 µM | [8] > 100 µM | [9] 75.3 µM

Cc1cc(C)c(-n2c(-c3ccc(Br)cc3)cs/c2=N\N=C2C=C(C(C)(C)C)C(=O)C(C(C)(C)C)=C2)c(C)c1
inactive: [1] > 100 µM | [2] > 100 µM | [3] > 100 µM | [4] > 100 µM | [5] > 100 µM | [6] > 100 µM | [7] 29.9 µM | [8] > 100 µM | [9] > 100 µM

[O-][S+]1c2ccccc2N=C(c2cccc3ccccc23)CC1c1cccc2ccccc12 (stereo not given)
inactive: [1] 29.6 µM | [2] 18.4 µM | [3] 17.5 µM | [4] 2.01 µM | [5] 36.4 µM | [6] 12.2 µM | [7] 20.6 µM | [8] 36.3 µM | [9] 16.5 µM

O=C(O)c1ccccc1[Se][Se]c1ccccc1C(=O)O
inactive: [1] 66.1 µM | [2] > 100 µM | [4] 41.4 µM | [5] 28.4 µM | [6] 23.2 µM | [7] 70 µM | [8] 25.8 µM | [9] 32.3 µM

O=c1[nH]c(=O)n(C2CC(O)C(CO)O2)cc1C#Cc1cc(F)cc(F)c1 (stereo not given)
inactive: [1] > 100 µM | [2] > 100 µM | [3] > 100 µM | [4] > 100 µM | [5] > 100 µM | [6] 24.7 µM | [7] > 100 µM | [8] > 10 µM | [9] > 100 µM

O=C1C=CC2(C=C1)C[C@H](NC(=O)OCc1ccccc1)C(=O)O2
inactive: [1] 18.3 µM | [2] 5.53 µM | [3] 12.1 µM | [4] 18.4 µM | [5] 19.6 µM | [6] 16.7 µM | [7] 17.8 µM | [8] 19 µM | [9] 20.3 µM

COc1ccc2[nH]c3c(c2c1)[C@H](C)C[C@@H]1C(=O)N(c2ccccc2)C(=O)[C@H]31
inactive: [1] 37.8 µM | [2] 43.3 µM | [3] 29.6 µM | [4] 36.7 µM | [5] 20.5 µM | [6] 20.9 µM | [7] 24.5 µM | [8] 62.8 µM | [9] 33.8 µM

COc1ccc(/C=C2\CCC(CCN(C)C)(C3=CCCC3)C2=O)cc1Br (stereo not given)
inactive: [1] 3.78 µM | [2] 5.13 µM | [3] 4.71 µM | [4] 2.93 µM | [5] 14.7 µM | [6] 12.4 µM | [7] 3.24 µM | [8] 1.59 µM | [9] 4.32 µM
